In US20230373974A1, “MODULATORS OF CYSTIC FIBROSIS TRANSMEMBRANE CONDUCTANCE REGULATOR” (VERTEX PHARMACEUTICALS INCORPORATED, priority 2020, published 2023) one finds EC50 and Emax data, which are given here for 40 compounds.

The assay concerns the target T1, F508del in NIH 3T3 cells (Homo sapiens, UniProt P13569, DEL508-508).
T1 construct: expressed in transfected cells
Briefly: 3T3 assay: membrane potential optical assay for F508del correction. Type of assay: cell-based, mouse. Conditions: F508del NIH 3T3 cells; for EC50: incubated with compound 18-24 hours at 37° C., forskolin activation; for Emax: NIH3T3, efficacy compared to lumacaftor in combination with acutely added 300 nM Ivacaftor, read-out: 3T3 Max Activity (%). An excerpt:
Membrane Potential Optical Methods for Assaying F508del Modulation Properties of Compounds The assay utilizes fluorescent voltage sensing dyes to measure changes in membrane potential using a fluorescent plate reader (e.g., FLIPR III, Molecular Devices, Inc.) as a readout for increase in functional F508del in NIH 3T3 cells. The driving force for the response is the creation of a chloride ion gradient in conjunction with channel activation by a single liquid addition step after the cells have previously been treated with compounds and subsequently loaded with a voltage sensing dye. 2. Identification of Corrector Compounds To identify correctors of F508del, a single-addition HTS assay format was developed. This HTS assay utilizes fluorescent voltage sensing dyes to measure changes in membrane potential on the FLIPR III as a measurement for increase in gating (conductance) of F508del in F508del NIH 3T3 cells. The F508del NIH 3T3 cell cultures were incubated with the corrector compounds at a range of concentrations for 18-24 hours at 37° C., and subsequently loaded with a redistribution dye. The driving force for the response is a Cl^− ion gradient in conjunction with channel activation with forskolin in a single liquid addition step using a fluorescent plate reader such as FLIPR III. […] Solutions […] Chloride-free bath solution: Chloride salts in Bath Solution #1 (above) are substituted with gluconate salts. 4. Cell Culture NIH3T3 mouse fibroblasts stably expressing F508del are used for optical measurements of membrane potential. The cells are maintained at 37° C. in 5% CO2 and 90% humidity in Dulbecco's modified Eagle's medium supplemented with 2 mM glutamine, 10% fetal bovine serum, 1×NEAA, b-ME, 1×pen/strep, and 25 mM HEPES in 175 cm^2 culture flasks. For all optical assays, the cells were seeded at ˜20,000/well in 384-well Matrigel-coated plates. For the correction assays, the cells are cultured at 37° C. with and without compounds for 16-24 hours.

Where only a bound is given, the exact number is not on record here.

T1 sequence (P13569 with tags, fused parts or gaps DEL508-508): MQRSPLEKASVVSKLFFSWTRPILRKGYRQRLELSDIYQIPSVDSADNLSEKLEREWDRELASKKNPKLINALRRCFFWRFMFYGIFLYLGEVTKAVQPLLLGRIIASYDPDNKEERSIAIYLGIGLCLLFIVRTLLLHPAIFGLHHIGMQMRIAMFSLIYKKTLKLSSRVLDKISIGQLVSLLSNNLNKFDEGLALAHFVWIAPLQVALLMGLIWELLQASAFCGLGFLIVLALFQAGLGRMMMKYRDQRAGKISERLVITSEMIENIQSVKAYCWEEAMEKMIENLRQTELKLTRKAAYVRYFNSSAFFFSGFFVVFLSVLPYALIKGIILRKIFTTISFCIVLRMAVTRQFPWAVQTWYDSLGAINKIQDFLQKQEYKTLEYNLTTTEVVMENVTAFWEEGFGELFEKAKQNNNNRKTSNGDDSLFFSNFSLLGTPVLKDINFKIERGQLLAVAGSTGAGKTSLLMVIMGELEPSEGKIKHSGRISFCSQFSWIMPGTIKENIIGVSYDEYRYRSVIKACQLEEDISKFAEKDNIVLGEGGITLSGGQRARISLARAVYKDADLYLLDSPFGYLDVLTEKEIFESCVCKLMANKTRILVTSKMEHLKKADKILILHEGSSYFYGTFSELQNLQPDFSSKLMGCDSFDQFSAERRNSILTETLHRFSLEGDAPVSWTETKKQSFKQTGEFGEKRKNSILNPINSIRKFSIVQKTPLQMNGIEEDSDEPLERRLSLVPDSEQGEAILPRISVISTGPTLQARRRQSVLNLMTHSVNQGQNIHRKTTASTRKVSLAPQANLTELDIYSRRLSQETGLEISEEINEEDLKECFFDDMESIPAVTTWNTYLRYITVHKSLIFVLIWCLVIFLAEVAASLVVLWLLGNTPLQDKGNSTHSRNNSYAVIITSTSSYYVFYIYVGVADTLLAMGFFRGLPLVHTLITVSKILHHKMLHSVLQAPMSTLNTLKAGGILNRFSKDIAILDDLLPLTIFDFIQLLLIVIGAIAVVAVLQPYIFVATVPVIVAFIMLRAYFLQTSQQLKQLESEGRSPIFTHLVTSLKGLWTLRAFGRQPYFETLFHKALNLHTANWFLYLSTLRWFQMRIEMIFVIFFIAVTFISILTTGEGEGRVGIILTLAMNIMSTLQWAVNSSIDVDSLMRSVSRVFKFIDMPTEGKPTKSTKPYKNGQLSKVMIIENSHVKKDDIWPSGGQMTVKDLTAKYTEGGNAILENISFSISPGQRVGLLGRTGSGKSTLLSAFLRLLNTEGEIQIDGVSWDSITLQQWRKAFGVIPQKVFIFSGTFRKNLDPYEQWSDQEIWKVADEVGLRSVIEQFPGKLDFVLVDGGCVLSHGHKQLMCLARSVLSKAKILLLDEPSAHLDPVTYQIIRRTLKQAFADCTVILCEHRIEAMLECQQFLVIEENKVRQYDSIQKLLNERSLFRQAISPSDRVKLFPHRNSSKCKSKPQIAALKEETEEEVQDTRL

`Cc1ccccc1Oc1nc(NS(=O)(=O)c2cnn(C)c2)nc2c1C(C)(C)CCC2` [Compound 1, N-[5,5-dimethyl-4-(2-methylphenoxy)-7,8-dihydro-6H-quinazolin-2-yl]-1-methyl-pyrazole-4-sulfonamide]: the 50% effective concentration (EC50) (commonly the concentration at which the effect is half-maximal) is 1 to 3 µM and the Emax is over 60%.
`Cc1ccccc1Oc1nc(NS(=O)(=O)c2cnn(C)c2)nc2c1CCC(C)(C)C2` [Compound 2, N-[7,7-Dimethyl-4-(2-methylphenoxy)-6,8-dihydro-5H-quinazolin-2-yl]-1-methyl-pyrazole-4-sulfonamide]: the EC50 lay within 1 to 3 µM and the Emax was over 60%.
As for `Cc1ccccc1Oc1nc(NS(=O)(=O)c2cnn(C)c2)nc2c1CC(C)(C)CC2` [Compound 3, N-[6,6-Dimethyl-4-(2-methylphenoxy)-7,8-dihydro-5H-quinazolin-2-yl]-1-methyl-pyrazole-4-sulfonamide], the EC50 was 1 to 3 µM and the Emax was over 60%.
For `O=S(=O)(Nc1nc2c(c(Oc3ccccc3)n1)CCCC2)c1ccccc1` [Compound 4, N-(4-phenoxy-5,6,7,8-tetrahydroquinazolin-2-yl)benzenesulfonamide] the same measures were 3 to 30 µM and over 60%.
Regarding `Cc1ccccc1Oc1nc(NS(=O)(=O)c2cnn(C)c2)nc2c1CCCC2(C)C` [Compound 5, N-[8,8-Dimethyl-4-(2-methylphenoxy)-6,7-dihydro-5H-quinazolin-2-yl]-1-methyl-pyrazole-4-sulfonamide], the EC50 was 3 to 30 µM and the Emax fell in the range of 30 to 60%.
Take `O=S(=O)(Nc1nc2c(c(Oc3ccccc3)n1)CCC2)c1ccccc1` [Compound 6, N-(4-phenoxy-6,7-dihydro-5H-cyclopenta[d]pyrimidin-2-yl)benzenesulfonamide]: the concentration giving a half-maximal response (EC50) lay in the range of 3 to 30 µM and the Emax is over 60%.
For `Cc1ccccc1Oc1nc(NS(=O)(=O)c2cnn(C)c2)nc2c1CCc1ccccc1-2` [Compound 7] the same measures were under 1 µM and over 60%.
In the case of `O=S(=O)(NC1=Nc2ccccc2C(c2ccccc2)S1)c1ccccc1` (stereo not shown) [Compound 9, N-(4-phenyl-4H-3,1-benzothiazin-2-yl)benzenesulfonamide], the EC50 is 3 to 30 µM.
`CC(C)(C)c1ccccc1Oc1nc2ccccc2nc1NS(=O)(=O)c1ccccc1` [Compound 10, N-[3-(2-tert-butylphenoxy)quinoxalin-2-yl]benzenesulfonamide]: the EC50 was under 1 µM.
As to `Cc1cccc(C)c1Oc1nc2ccccc2nc1NS(=O)(=O)c1ccccc1` [Compound 11, N-[3-(2,6-Dimethylphenoxy)quinoxalin-2-yl]benzenesulfonamide], the EC50 was 3 to 30 µM.
Regarding `O=S(=O)(Nc1nc2ccccc2nc1N1CCCCC1)c1ccccc1` [Compound 12, N-[3-(1-piperidyl)quinoxalin-2-yl]benzenesulfonamide], the EC50 fell in the range of 3 to 30 µM and the Emax was 30 to 60%.
With `Cc1cc(C)c(Oc2nc3ccccc3nc2NS(=O)(=O)c2ccccc2)c(C)c1` [Compound 13], the EC50 lay in the range of 1 to 3 µM and the Emax fell in the range of 30 to 60%.
For the compound `Cc1ccc(Oc2nc3ccccc3nc2NS(=O)(=O)c2ccccc2)c(C)c1` [Compound 14], the EC50 was 1 to 3 µM and the Emax is 30 to 60%.
For `Cc1ccccc1Oc1nc2ccccc2nc1NS(=O)(=O)c1ccccc1` [Compound 15], in that order: 3 to 30 µM and 30 to 60%.
Consider `O=S(=O)(Nc1nc(Oc2ccccc2)nc2ccccc12)c1ccccc1` [Compound 16], for which the Emax was under 30%.
In the case of `Cc1cc(C)cc(-c2nc(NS(=O)(=O)c3ccccc3)c3ccc(C(C)(C)C)nc3n2)c1` [Compound 17], the Emax is under 30%.
On to `Cc1ccc(-c2nc(NS(=O)(=O)c3ccccc3)c3ccc(C(C)(C)C)nc3n2)c(C)c1` [Compound 18], for which the Emax is under 30%.
As to `Cc1cc(C)c(Oc2nc(NS(=O)(=O)c3ccccc3)c3ccc(C(C)(C)C)nc3n2)c(C)c1` [Compound 19], the Emax was under 30%.
Turning to `O=S(=O)(Nc1nc2c(s1)-c1ccccc1CC2)c1ccccc1` [Compound 20, N-(4,5-Dihydrobenzo[g][1,3]benzothiazol-2-yl) benzenesulfonamide], the concentration for a half-maximal effect (EC50) is 3 to 30 µM.
Take `CC(C)(O)C1CCc2nc(NS(=O)(=O)c3ccccc3)sc2C1` (stereo not shown) [Compound 21]: the Emax was under 30%.
On to `CC(C)N1CCc2nc(NS(=O)(=O)c3ccccc3)sc2C1` [Compound 22], for which the Emax is under 30%.
Regarding `CC1CCc2nc(NS(=O)(=O)c3ccccc3)sc2C1` (stereo not shown) [Compound 24], the Emax was under 30%.
`CC(C)(C)C1CCc2nc(NS(=O)(=O)c3ccccc3)sc2C1` (stereo not shown) [Compound 25]: the EC50 lay within 1 to 3 µM and the Emax was in the range of 30 to 60%.
As to `O=S(=O)(Nc1nc2c(s1)CCc1ccccc1-2)c1ccccc1` [Compound 26], the EC50 was in the range of 1 to 3 µM and the Emax is 30 to 60%.
For `O=S(=O)(Nc1nc2c(s1)Cc1ccccc1-2)c1ccccc1` [Compound 27], the EC50 lay in the range of 3 to 30 µM and the Emax is 30 to 60%.
`Cc1cc(C)cc(-c2nc(NS(=O)(=O)c3ccccc3)nc3ccccc23)c1` [Compound 28, N-[4-(3,5-Dimethylphenyl)quinazolin-2-yl]benzenesulfonamide]: the EC50 was 1 to 3 µM.
On the same count and under the same terms, to `O=S(=O)(Nc1nc(-c2ccccc2)c2ccn(-c3ccccc3)c2n1)c1ccccc1` [Compound 29, N-(4,7-Diphenylpyrrolo[2,3-d]pyrimidin-2-yl)benzenesulfonamide] belongs under 1 µM.
For the compound `Cc1cc(C)cc(-c2nc(NS(=O)(=O)c3ccccc3)nc3nc(C(C)(C)C)ccc23)c1` [Compound 30, N-[7-tert-butyl-4-(3,5-dimethylphenyl)pyrido[2,3-d]pyrimidin-2-yl]benzenesulfonamide], the half-maximal effective concentration (EC50) is under 1 µM.
As for `O=S(=O)(Nc1nc(Oc2ccccc2)c2ccccc2n1)c1ccccc1` [Compound 31, N-(4-phenoxyquinazolin-2-yl)benzenesulfonamide], the EC50 was in the range of 3 to 30 µM.
On to `Nc1cccc(S(=O)(=O)Nc2nc(-c3ccccc3)c3ccn(-c4ccccc4)c3n2)c1` [Compound 32, 3-Amino-N-(4,7-diphenylpyrrolo[2,3-d]pyrimidin-2-yl)benzenesulfonamide], for which the EC50 is under 1 µM.
As for `Cc1cc(C)c(-n2nc(NS(=O)(=O)c3cccc(N(C)C)c3)c3ccc(C(C)(C)C)nc32)c(C)c1` [Compound 34, N-[6-tert-butyl-1-(2,4,6-trimethylphenyl)pyrazolo[3,4-b]pyridin-3-yl]-3-(dimethylamino)benzenesulfonamide], the EC50 is under 1 µM and the Emax is over 60%.
As for `Cc1cc(C)c(-n2nc(NS(=O)(=O)c3cn[nH]c3)c3ccc(C(C)(C)C)nc32)c(C)c1` [Compound 35, N-[6-tert-butyl-1-(2,4,6-trimethylphenyl)pyrazolo[3,4-b]pyridin-3-yl]-1H-pyrazole-4-sulfonamide], the EC50 is 1 to 3 µM and the Emax was over 60%.
Turning to `Cc1cc(C)c(-n2nc(NS(=O)(=O)c3ccc(N)cc3)c3ccc(C(C)(C)C)nc32)c(C)c1` [Compound 36, 4-Amino-N-[6-tert-butyl-1-(2,4,6-trimethylphenyl)pyrazolo[3,4-b]pyridin-3-yl]benzenesulfonamide], the EC50 fell in the range of 1 to 3 µM.
`Cc1cc(C)cc(-n2nc(NS(=O)(=O)c3ccccc3)c3ccc(C(C)(C)C)nc32)c1` [Compound 37, N-[6-tert-Butyl-1-(3,5-dimethylphenyl)pyrazolo[3,4-b]pyridin-3-yl]benzenesulfonamide]: the EC50 was under 1 µM and the Emax lay within 30 to 60%.
In the case of `CC(C)(C)c1ccc2c(NS(=O)(=O)c3ccccc3)nn(-c3cccc(Cl)c3)c2n1` [Compound 38, N-[6-tert-butyl-1-(3-chlorophenyl)pyrazolo[3,4-b]pyridin-3-yl]benzenesulfonamide], the EC50 was under 1 µM and the Emax lay in the range of 30 to 60%.
Take `CC(C)n1nc(NS(=O)(=O)c2ccccc2)c2ccc(C(C)(C)C)nc21` [Compound 39, N-(6-tert-butyl-1-isopropyl-pyrazolo[3,4-b]pyridin-3-yl)benzenesulfonamide]: the 50% effective concentration (EC50) was in the range of 1 to 3 µM.
Consider `CC(C)(C)c1ccc2c(NS(=O)(=O)c3ccccc3)nn(-c3ccccc3)c2n1` [Compound 40], for which the concentration giving a half-maximal response (EC50) was under 1 µM and the Emax was 30 to 60%.
In the case of `CC(C)CCn1nc(NS(=O)(=O)c2ccccc2)c2ccc(C(C)(C)C)nc21` [Compound 41], the Emax was under 30%.
For `Cc1cc(C)c(-n2nc(NS(=O)(=O)c3cccc(N)n3)c3ccc(C(C)(C)C)nc32)c(C)c1` [Compound 42], the EC50 is 1 to 3 µM and the Emax lay in the range of 30 to 60%.
With `Cc1ccc(-n2nc(NS(=O)(=O)c3ccccc3)c3ccc(C(C)(C)C)nc32)c(C)c1` [Compound 43], the EC50 is under 1 µM and the Emax was in the range of 30 to 60%.
